Source: patent EP2796135A1, “Use of trifluoroacetic acid and salts thereof to treat hypercholesterolemia” (POLICHEM S.A., priority 2013, dated 2014)
Counter-ions that a name gives are not always drawn.

How the values were obtained:
total cholesterol [1] = assay: intravenous study in dogs, daily administration for 4 weeks (Example 15); assay type: in vivo, Beagle dogs; details: for reduction in total cholesterol: intravenous, end of the 4 weeks of treatment
Method: An intravenous study of the Calcium salt of trifluoroacetic acid was performed in Beagle dogs after daily administration for 4 weeks.
Dogs (4 animals/sex/group) were treated by intravenous slow injection (2.5 mL/min) with 50, 100 and 200 mg/kg for 4 consecutive weeks.
(§1) The intravenous solutions were prepared as for Example 9.

total cholesterol [2] = assay: preliminary intravenous study in dogs, daily administration for 14 days (Example 14); assay type: in vivo, Beagle dogs; details: for reduction in total cholesterol: end of the 14 days of treatment
Method: A preliminary intravenous study of the Calcium salt of trifluoroacetic acid was performed in Beagle dogs after daily administration.
Dogs (2 animals/sex/group) were treated by intravenous slow injection (2.5 mL/min) with 100 and 200 mg/kg for 14 consecutive days.
as §1

total cholesterol [3] = assay: preliminary oral study with ascending dose levels in minipigs (Example 13); assay type: in vivo, Göttingen minipig; details: for decrease of total cholesterol: male
Method: (§2) A preliminary oral study of the Calcium salt of trifluoroacetic acid was performed in minipigs. One male and one female Göttingen minipig were daily treated by oral route with ascending dose levels of Calcium salt of trifluoroacetic acid, as indicated below.
(§3) The oral solutions were prepared as for Example 1.

[4] = as above; assay type: in vivo, Göttingen minipig; details: in vivo, minipig, read-out: maximum tolerated dose
Method: as §2, §3

[5] = intravenous, 100 and 200 mg/kg, 14 consecutive days
[6] = ascending doses 50-1000 mg/kg/day

SMILES: O=C(O)C(F)(F)F [Calcium salt of trifluoroacetic acid, Calcium trifluoroacetate]
- changes in body weight, food consumption and water consumption, hematological, chemical chemistry, fecal and urinalysis parameters (total cholesterol [1]; both sexes, intravenous, 50, 100 and 200 mg/kg, 4 weeks): No changes of toxicological relevance
- reduction in total cholesterol (total cholesterol [1]; females, 50 mg/kg/day): 20%
- reduction in total cholesterol (total cholesterol [1]; females, 100 mg/kg/day): 29%
- reduction in total cholesterol (total cholesterol [1]; females, 200 mg/kg/day): 24%
- deaths (total cholesterol [1]; intravenous slow injection, 50, 100 and 200 mg/kg, 4 consecutive weeks): No deaths occurred
- organ weights (total cholesterol [1]; intravenous, 50, 100 and 200 mg/kg, 4 weeks): unaffected
- findings at the site of injection and electrographic alterations (total cholesterol [1]; intravenous, 50, 100 and 200 mg/kg, 4 weeks, findings at the site of injection minimal to moderate): dose dependent and reversible
- reduction in total cholesterol (total cholesterol [1]; males, 50 mg/kg/day): 9%
- reduction in total cholesterol (total cholesterol [1]; males, 100 mg/kg/day): 21%
- reduction in total cholesterol (total cholesterol [1]; males, 200 mg/kg/day): 15%
- reduction in total cholesterol (total cholesterol [2]; females, intravenous, 100 mg/kg/day): 29%
- reduction in total cholesterol (total cholesterol [2]; females, intravenous, 200 mg/kg/day): 16%
- deaths (total cholesterol [2]; intravenous slow injection, 100 and 200 mg/kg, 14 consecutive days): No deaths occurred
- differences in body weight, food consumption, physical examination and chemical chemistry, coagulation, organ weight (total cholesterol [2]; [5]): No significant differences
- findings recorded in the study (total cholesterol [2]; [5]): limited to the site of injection
- reduction in total cholesterol (total cholesterol [2]; males, intravenous, 100 mg/kg/day): 18%
- reduction in total cholesterol (total cholesterol [2]; males, intravenous, 200 mg/kg/day): 21%
- changes in body weight, food consumption and water consumption (total cholesterol [3]; [6]): No changes of toxicological relevance
- changes in hematology (total cholesterol [3]; [6]): No changes of note
- mortality (total cholesterol [3]; ascending doses 50-1000 mg/kg/day, one male and one female minipig): No mortality occurred
- decrease of total cholesterol (total cholesterol [3]; 150 mg/kg/day): 18%
- decrease of total cholesterol (total cholesterol [3]; 200 mg/kg/day): 33%
- decrease of total cholesterol (total cholesterol [3]; 300 mg/kg/day): 44%
- decrease of total cholesterol (total cholesterol [3]; 600 mg/kg/day): 49%
- decrease of total cholesterol (total cholesterol [3]; 1000 mg/kg/day): 56%
- MTD [4]: ≥ 1000 mg/kg
